Paper PMC6154393 (Bioorganic & medicinal chemistry, 2018)
≈ marks a conversion by molar mass, not a printed value.

Tests used:
in vitro [1] = settings: monkey
Mtb Erdman strain = assay: BALB/c acute infection model, oral administration; assay type: in vivo, Mycobacterium tuberculosis
in vitro [2] = settings: human, Caco-2
[3] = system: non-replicating Mtb (H37Rv); assay: microbe, parasite or virus in culture; assay type: cell-based; settings: Mycobacterium tuberculosis, 240 h, read-out: MIC (LORA)
[4] = system: intracellular Mtb CDC1551-tdTomato in macrophages (J774A.1 cells); assay: Killing effect against intracellular Mtb in J774A.1 macrophages; assay type: cell-based, Mycobacterium tuberculosis; settings: at 2xMIC; for Killing of intracellular Mtb (in words): J774A.1 macrophages
[5] = mouse, in vivo, iv, 10 mg/kg
in vivo = settings: BALB/c, mouse, po, 30 mg/kg
Mycobacterium smegmatis = settings: cited from earlier work

In the case of `CC[C@@H](CO)NCCN[C@@H](CC)CO` [Ethambutol (EMB), Ethambutol], the IC50 at 72 h (in vitro [1]) is reported as > 200 µg/mL.

For `NNC(=O)c1ccncc1` [Isoniazid (INH), Isoniazid, reference compound], the Log reduction (Mtb Erdman strain; 2.5 mg/kg, 3 weeks, lung burden relative to untreated control) was “about 4 Log10” and the IC50 at 72 h (in vitro [1]) was > 200 µg/mL.

For `CC(=O)NC[C@H]1CN(c2ccc(N3CCOCC3)c(F)c2)C(=O)O1` [Linezolid], the IC50 at 72 h (in vitro [1]) was > 200 µg/mL.

For `CNC(=C[N+](=O)[O-])NCCSCc1ccc(CN(C)C)o1` [Ranitidine], the Papp A→B at 2 h, 10 µM (in vitro [2]) was 0.237 ×10⁻⁶ cm/s and the efflux ratio at 2 h, 10 µM (in vitro [2]) was 5.

For `CO[C@H]1/C=C/O[C@@]2(C)Oc3c(C)c(O)c4c(O)c(c(/C=N/N5CCN(C)CC5)c(O)c4c3C2=O)NC(=O)/C(C)=C\C=C\[C@H](C)[C@H](O)[C@@H](C)[C@@H](O)[C@@H](C)[C@H](OC(C)=O)[C@@H]1C` [Rifampicin (RIF), Rifampicin], the IC50 at 72 h (in vitro [1]) was > 200 µg/mL.

With `CC[C@]1(C)C[C@@H](OC(=O)CSC(C)(C)CNC(=O)[C@H](N)CC(C)C)[C@]2(C)[C@H](C)CC[C@]3(CC[C@@H](O)[C@H]32)[C@@H](C)[C@@H]1O` [UT-800 (1)] the MIC [3] was 1.04 to 3.46 µg/mL (≈ 1.78 to 5.94 µM), the “Time to kill Mtb in infected macrophages” value ([4]; J774A.1 cells, Mtb CDC1551-tdTomato) was ≤ 72 h and the “Killing of intracellular Mtb (in words)” value [4] was “kills intracellular Mtb faster than rifampicin”. The “Killing of intracellular Mtb (in words)” value ([4]; listed as 1) was “killed intracellular Mtb more effectively than INH and RIF”, the Log10 cfu/mouse (Mtb Erdman strain; 100 mg/kg, oral, 3 weeks, lungs, BALB/c mice, mean of 5) was 8.1E+05 and the Viable organisms persisted (Mtb Erdman strain; 200 mg/kg, 3 weeks) was 5.6-5.7 log10 cfu/mouse. For the same molecule, the Log10 cfu/mouse (Mtb Erdman strain; 200 mg/kg, oral, 3 weeks, lungs, BALB/c mice, mean of 5) was 4.4E+05, the Log10 cfu/mouse (Mtb Erdman strain; in vivo) was 1.2E+06 and the AUC0-24h [5] was 66,281 ng•h/g. The Tmax (in vivo) was ≤ 1 h.

Work on `C=C[C@]1(C)C[C@@H](OC(=O)CSC(C)(C)CNC(=O)[C@H](N)CC(C)C)[C@]2(C)[C@H](C)CC[C@]3(CCC(=O)[C@H]32)[C@@H](C)[C@@H]1O` [UT-810 (2)] yielded an MIC [3] of 1.04 to 3.46 µg/mL (≈ 1.8 to 5.98 µM).

In the case of `CC[C@]1(C)C[C@@H](OC(=O)CSC(C)(C)CNC(=O)[C@H](N)CC(C)C)[C@]2(C)[C@H](C)CC[C@]3(CCC(=O)[C@H]32)[C@@H](C)[C@@H]1O` [UT-815 (3)], the MIC [3] is reported as 1.04 to 3.46 µg/mL (≈ 1.79 to 5.96 µM).

`C=C[C@]1(C)C[C@@H](OC(=O)CSC(C)(C)CNC(=O)[C@H](N)CC(C)C)[C@]2(C)[C@H](C)CC[C@]3(CC[C@@H](O)[C@H]32)[C@@H](C)[C@@H]1O` [UT-820 (4)] showed an MIC [3] of 1.04 to 3.46 µg/mL (≈ 1.79 to 5.96 µM).

For `C=C[C@]1(C)C[C@@H](OC(=O)CSC(C)(C)CNC(=O)[C@H](N)C(C)C)[C@]2(C)[C@H](C)CC[C@]3(CCC(=O)[C@H]32)[C@@H](C)[C@@H]1O` [Valnemulin], the MIC (Mycobacterium smegmatis) is given as 8 to 16 µg/mL and the IC50 at 72 h (in vitro [1]) is given as 15 µg/mL (≈ 26.6 µM).
